In test [1] the test system is MCF-7 cells. The test is described as follows: Thymidine labeling of MCF-7 cells. In kind it is cell-based. The method, then: MCF-7 cells were plated out in multiwell dishes and grown for 24 hours in serum free medium (MEM). […] Radiolabelled thymidine was added to each well ([…]) and cells were then cultured for a further 24 hours. At the end of this period the medium was aspirated and the cultured cells were rinsed 3-times with cold buffer solution(50mm Tris-HCl, pH 7.4). The cells were then dissolved in 1ml of 0.1N NaOH and 0.5ml of this solution was mixed with 2.5ml of Scintillation cocktail and the intracellular radioactivity of ^3H was measured with a liquid scintillation counter.

For test [2], the system named is oestrogen receptor isoforms. Nature of the test: Isoelectric focusing (IEF) of 3H oestradiol binding to oestrogen receptor isoforms in tissue cytosol. Set-up: species or system rat. Conditions: Trilostane 10 micromolar, 3H oestradiol 5nM.
The subject of test [3] is rat prostate oestrogen receptors. The test is described as follows: Scatchard analysis of tritiated oestradiol binding, rat prostate. Set-up: dose or concentration left out as unconfirmed. Particulars: Figure 3. The method, then:
(§1) Using tissue, snap frozen at time of excision, cytosols were prepared by dismembration using a Braun II Mikrodismembrator. Frozen tissue was minced and pulverised. The resultant powder was resuspended in 1-mm phosphate buffer containing 10% (v/v) glycerol, 1.5mm EDTA, 10mM monothioglycerol, 20mM Sodium molybdate, aprotinin (1ug/ml) and STI (1ug/ml) and phenyl methyl sulfonyl fluoride (30ug/ml) at pH 7.4 by stirring for 15 minutes at 4°C. This suspension was centrifuged at 100,000g for 1 hour at 4°C and the supernantant was used for competition analysis.
(§2) After overnight incubation at 4°C assay tubes were incubated with DCC as above to remove free steroid and aliquots of the resultant supernatant were incubated with toluene based scintillant and counted on a Scintillation Counter. Data obtained was analysed according to the method of Scatchard.

For test [4] the following is noted: advanced breast cancer, cited from earlier work.
Test [5] relates to rat uterine oestrogen receptors. The test is described as follows: Scatchard analysis of tritiated oestradiol binding, rat uterus. Particulars: Figure 2, Trilostane at 10micromolar. As for the experimental part: as §1, §2
Test [6] deals with oestrogen receptor isoforms in rat uterus. The test is described as follows: Tritiated tamoxifen binding to oestrogen receptor isoforms (IEF). Conditions: Figure 5, test compound 10 micromolar, tritiated tamoxifen 10^-6M. The method, then:
as §1
After overnight incubation free steroid was separated from bound by incubating with dextran coated charcoal (0.25% w/v charcoal, 0.025% w/v Dextran T70 in 10mM Tris 1.5mM EDTA at pH 7.4) for 10 mins at 4°C. The DCC was pelleted by centrifugation (10,000g for 10 mins) and aliquots of the supernatant were used for IEF separation.
Isoelectric focusing (IEF) gels were cast in slabs of size 125 x 260 mm and separation was conducted along either the short side (short run) or the long side (long run) of the gel. […]
After DCC extraction, aliquots (270ul) of the radioactive supernatant (3 mg protein/ml) derived from SSD assay were loaded near the cathode. […] After the run the gels were cut into 2.5 mm slices and each slice was incubated with 5ml scintillation cocktail for 24h at room temperature and radioactivity assayed.

The subject of test [7] is oestrogen response element driven GFP gene in MCF-7 breast cancer cell line. The test is described as follows: Oestrogen reporter plasmid xTG (GFP) transcriptional activity in MCF-7 cells. In kind it is cell-based. Conditions: compound at 10^-6M plus E2 at 10^-8M; MCF-7 transiently transfected with xTG for three days. An excerpt:
XTG consists of a oestrogen response element. Upstream of a simple TATA promoter which together drive transcription of the GFP gene from the jellyfish Aequorea victoria. The xERE sequence is made up of the following - GGTCA CAG TGACC […] (SEQUENCE ID NO: 1)
The GFP gene - from GFPuv was supplied by Clontech (Clontech Laboratories, Inc., 1020 East Meadow Circle, Palo Alto, CA 94303-4230, USA)
E2 was used at a concentration of 10^-8M while all other compounds were used at 10^-6M. All ligands were added to cell media during transfection.

In test [8] the target is oestrogen receptor present in MCF-7 breast cancer cell extracts / oestrogen response element (Homo sapiens, UniProt P03372). Nature of the test: Electrophoretic mobility shift assay (EMSA) of ER-ERE complex formation in extracts of treated MCF-7 cells. In kind it is cell-based. Conditions: MCF7, 24 h, read-out: ER-ERE complex formation.
The conditions of test [9]: cited from earlier work.

Entries after “also recorded” stand apart in the source; their conditions may differ. Read-outs that look alike come from different tables or passages of the source.

oestrogen receptor present in MCF-7 breast cancer cell extracts / oestrogen response element, sequence (P03372 whole entry): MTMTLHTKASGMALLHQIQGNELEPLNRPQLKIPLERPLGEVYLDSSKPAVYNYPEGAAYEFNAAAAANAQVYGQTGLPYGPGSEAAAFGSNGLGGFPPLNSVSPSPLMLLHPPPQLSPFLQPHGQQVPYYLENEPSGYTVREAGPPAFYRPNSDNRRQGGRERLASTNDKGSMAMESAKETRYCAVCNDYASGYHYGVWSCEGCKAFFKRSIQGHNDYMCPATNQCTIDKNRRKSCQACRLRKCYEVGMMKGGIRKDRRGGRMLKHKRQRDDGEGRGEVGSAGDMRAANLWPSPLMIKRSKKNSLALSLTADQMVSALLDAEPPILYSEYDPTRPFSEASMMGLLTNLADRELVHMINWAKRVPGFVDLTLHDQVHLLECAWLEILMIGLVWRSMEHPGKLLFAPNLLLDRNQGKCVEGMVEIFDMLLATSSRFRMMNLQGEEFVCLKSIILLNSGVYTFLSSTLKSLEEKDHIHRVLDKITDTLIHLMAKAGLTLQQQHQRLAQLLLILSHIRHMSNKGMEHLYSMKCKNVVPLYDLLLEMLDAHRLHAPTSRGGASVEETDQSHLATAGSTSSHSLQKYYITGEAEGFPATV

As to `C[C@]12CC[C@H]3[C@@H](CC[C@@]45O[C@@H]4C(O)=C(C#N)C[C@]35C)[C@@H]1CC[C@@H]2O` [Trilostane, (4α,5α-17β)-4,5-epoxy-3,17-dihydroxyandrost-2-ene-2carbonitrile], the “blocking of the oestradiol-induced increase in thymidine labeling” value in test [1] (E2+T: Oestradiol 10^-8 M and Trilostane 10µM, 24 hours) was “completely blocked”. Also, in test [1] (Homo sapiens, MCF7, 24 h, read-out: inhibition of thymidine uptake of MCF-7 cells compared with control), the inhibition at 10 µM came to 31%. Besides, the “binding of oestrogen onto the oestrogen receptor isoforms” value in [2] is “modulated the binding of oestrogen onto all the oestrogen receptor isoforms but principally onto the pI 6.3 isoform”. The “concentration of total receptor (x axis intercept of Scatchard plot)” value in [3] is “increases the concentration of total receptor; also recorded: an increase in receptor concentration”. Besides, the response rate in [4] (Ingle J.N. et al 1990) is 38%; in [4] (Williams C.J. et al 1993), 29%. For the same compound, in test [5], the “concentration of total receptor (X axis intercept of Scatchard plot)” value is “increases the apparent affinity of oestrogen binding (given by the slope of the regression lines) and the concentration of total receptor”. For the same compound, the “tritiated tamoxifen binding to oestrogen receptor isoforms” value in test [6] is reported as “increased tritiated tamoxifen binding to oestrogen receptor isoforms”. The “E2-driven transactivation / transcription of GFP” value in test [7] is on record as “reduced transcription of GFP”.
For the compound `C[C@]12CC[C@H]3[C@@H](CC[C@@]45O[C@@H]4C(=O)[C@H](C#N)C[C@]35C)[C@@H]1CCC2=O` [keto-trilostane], in test [6], the “tritiated tamoxifen binding to oestrogen receptor isoforms” value is “increased tritiated tamoxifen binding to oestrogen receptor isoforms”. Further, in test [8], the activity at 10 µM was determined as 68%.
Turning to `C[C@]12CC[C@@H]3c4ccc(O)cc4CC[C@H]3[C@@H]1CC[C@@H]2O` [oestradiol], the activation at 0.01 µM in [1] (Homo sapiens, MCF7, 24 h, read-out: increase in thymidine labeling compared to control) turned out to be 15%.
Consider `O=C(c1ccc(OCCN2CCCCC2)cc1)c1c(-c2ccc(O)cc2)sc2cc(O)ccc12` [raloxifene], for which the “E2-driven transactivation / transcription of GFP” value in test [7] is recorded as “reduced E2-driven transactivation”.
Regarding `CC/C(=C(\c1ccccc1)c1ccc(OCCN(C)C)cc1)c1ccccc1` [tamoxifen], in [9] (all women, two-sided P<.00001), the “reduction of the risk of invasive breast cancer” value is 49%. Besides, the “occurrence of oestrogen receptor-negative tumors” value in [9] (in vivo) was “no difference”. Also, the “reduction of the occurrence of oestrogen receptor-positive tumors” value in test [9] (in vivo) was 69%. Moreover, the “cumulative incidence of invasive breast cancer” value in [9] (through 69 months of follow-up, tamoxifen group) is reported as 22.0 per 1000 women. Moreover, the “reduction of the risk of noninvasive breast cancer” value in test [9] (two-sided P<.002) is recorded as 50%. Further, the “decreased risk of invasive breast cancer” value in [9] (women aged 49 years or younger) is 44%; in test [9] (women aged 50-59 years), 51%; in test [9] (women aged 60 years or older) it was 55%; in test [9] (women with a history of atypical breast hyperplasia), 86%; in test [9] (women with a history of breast lobular carcinoma in situ), 56%. Also, in test [7], the “E2-driven transactivation / transcription of GFP” value was “reduced E2-driven transactivation”.

Values taken from EP1255553B1 (Stegram Pharmaceuticals Limited, priority 2000, dated 2001).
